Data reported in ChEMBL document CHEMBL1158627, “Non-basic ligands for aminergic GPCRs: the discovery and development diaryl sulfones as selective, orally bioavailable 5-HT2A receptor antagonists for the treatment of sleep disorders” (Bioorg Med Chem Lett, 2010).
pIC50, pKi: −log10 of the molar value. Blank lines part the entries; values can stand above or below the molecule they belong to. Active and inactive are the calls of the source. The calls are words filed in the database; no cut-off is given here.

Tests used:
[1] = molecular target: T1, 5-hydroxytryptamine receptor 2C (Homo sapiens, UniProt P28335); test: biochemical
T1 sequence (P28335 whole entry): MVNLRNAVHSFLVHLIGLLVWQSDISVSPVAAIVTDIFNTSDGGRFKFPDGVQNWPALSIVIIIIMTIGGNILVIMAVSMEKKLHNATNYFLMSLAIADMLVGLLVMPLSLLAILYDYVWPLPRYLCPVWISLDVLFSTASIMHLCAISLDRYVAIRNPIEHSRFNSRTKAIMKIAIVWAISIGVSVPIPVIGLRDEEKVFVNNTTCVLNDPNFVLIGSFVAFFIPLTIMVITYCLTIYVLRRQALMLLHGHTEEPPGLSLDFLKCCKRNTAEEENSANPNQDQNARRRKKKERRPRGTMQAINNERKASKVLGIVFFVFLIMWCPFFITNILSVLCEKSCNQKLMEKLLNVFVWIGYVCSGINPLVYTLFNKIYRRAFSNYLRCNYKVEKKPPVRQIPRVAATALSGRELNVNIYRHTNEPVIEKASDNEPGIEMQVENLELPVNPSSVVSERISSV
Description: Displacement of [3H]mesulergine from human 5HT2C receptor expressed CHO cells

[2] = Plasma concentration in rat at 10 mg/kg, po after 0.5 hrs; format: ADME, organism-based; set-up: dose 10 mg/kg, route oral
[3] = Drug level in rat brain at 10 mg/kg, po after 0.5 hrs; format: ADME, organism-based; set-up: dose 10 mg/kg, route oral; conditions: read-out: Drug uptake
[4] = molecular target: Voltage-gated inwardly rectifying potassium channel KCNH2 (Homo sapiens, UniProt Q12809); test: Displacement of [3H]-dofetilide from human ERG receptor expressed HEK cells
Rattus norvegicus [5] = test: Inhibition of ex vivo receptor occupancy of 5HT2A receptor in rat brain at 10 mg/kg, po after 0.5 hrs; format: functional
[6] = Metabolic stability in human liver microsomes assessed as compound turnover after 0.25 hrs by LC/MS/MS analysis; set-up: dose or concentration left out as unconfirmed
[7] = molecular target: 5-hydroxytryptamine receptor 2A (Homo sapiens, UniProt P28223); test: biochemical
Description: Displacement of [3H]- ketanserin from human 5HT2A receptor expressed CHO cells

Rattus norvegicus [8] = test: Ex vivo receptor occupancy of 5HT2A receptor in rat brain at 10 mg/kg, po after 0.5 hrs; format: functional
Rattus norvegicus [9] = test: Ex vivo receptor occupancy of 5HT2A receptor in rat brain at 5 mg/kg, po after 0.5 hrs; format: functional
[10] = Metabolic stability in rhesus monkey liver microsomes assessed as compound remaining […] after 0.25 hrs by LC/MS/MS analysis; format: ADME, Macaca mulatta, Microsome; conditions: read-out: Stability
[11] = Plasma clearance in dog at 0.1 mg/kg, iv and 1 mg/kg, po; format: ADME, organism-based, Canis lupus familiaris
[12] = Half life in rhesus monkey at 0.1 mg/kg, iv and 1 mg/kg, po; format: ADME, organism-based, Macaca mulatta; conditions: in vivo
[13] = Half life in dog at 0.1 mg/kg, iv and 1 mg/kg, po; format: ADME, organism-based, Canis lupus familiaris; conditions: in vivo
[14] = Plasma clearance in Sprague-Dawley rat at 0.1 mg/kg, iv and 1 mg/kg, po; format: ADME, organism-based
[15] = Metabolic stability in rat liver microsomes assessed as compound remaining […] after 0.25 hrs by LC/MS/MS analysis; format: ADME, Microsome; conditions: read-out: Stability
[16] = Metabolic stability in dog liver microsomes assessed as compound remaining […] after 0.25 hrs by LC/MS/MS analysis; format: ADME, Canis lupus familiaris, Microsome; conditions: read-out: Stability
[17] = Half life in Sprague-Dawley rat at 0.1 mg/kg, iv and 1 mg/kg, po; format: ADME, organism-based; conditions: in vivo
[18] = Plasma clearance in rhesus monkey at 0.1 mg/kg, iv and 1 mg/kg, po; format: ADME, organism-based, Macaca mulatta
[19] = Drug level in rat cardiac plasma at 5 mg/kg, po administered with imwittor/tween by electrospray mass spectrometry; format: ADME, organism-based; set-up: dose 5 mg/kg, route oral
[20] = Drug level in rat hepatic portal vein plasma at 5 mg/kg, po administered with methocel suspension by electrospray mass spectrometry; format: ADME, organism-based; set-up: dose 5 mg/kg, route oral
[21] = Drug level in rat cardiac plasma at 5 mg/kg, po administered with methocel suspension by electrospray mass spectrometry; format: ADME, organism-based; set-up: dose 5 mg/kg, route oral
[22] = Drug level in rat brain at 5 mg/kg, po administered with methocel suspension by electrospray mass spectrometry; format: ADME, organism-based; set-up: dose 5 mg/kg, route oral
[23] = Drug level in rat hepatic portal vein plasma at 5 mg/kg, po administered with imwittor/tween by electrospray mass spectrometry; format: ADME, organism-based; set-up: dose 5 mg/kg, route oral
[24] = Drug level in rat brain at 5 mg/kg, po administered with imwittor/tween by electrospray mass spectrometry; format: ADME, organism-based; set-up: dose 5 mg/kg, route oral
[25] = molecular target: Cytochrome P450 2C9 (Homo sapiens) (UniProt P11712); test: Inhibition of CYP2C9
[26] = molecular target: Cytochrome P450 2C9 (Homo sapiens) (UniProt P11712); test: Inhibition of CYP2C9 at 6 uM
Rattus norvegicus [27] = test: Sedative activity in rat assessed effect on sleep onset at 3 mg/kg, po after 15 hrs; format: ADME, organism-based; set-up: dose 3 mg/kg, route oral; conditions: in vivo
[28] = Volume of distribution at steady state in Sprague-Dawley rat at 0.1 mg/kg, iv and 1 mg/kg, po; format: ADME, organism-based; conditions: in vivo, read-out: Vdss
[29] = Bioavailability in dog; format: ADME, organism-based, Canis lupus familiaris; conditions: in vivo
[30] = Bioavailability in rhesus monkey; format: ADME, organism-based, Macaca mulatta; conditions: in vivo
Mus musculus = test: Phototoxicity in mouse assessed as formation of erythema at 10 to 2000 mg/kg, po; format: organism-based; set-up: dose 10-2000 mg/kg, route oral; conditions: in vivo
[31] = Inhibition of CYP1A at 4.8 uM; format: ADME
[32] = Stability after 5 days; format: physicochemical; conditions: 120 h
[33] = Chemical stability in acetonitrile/water at pH 1 to 10 after 5 days; format: physicochemical; conditions: pH 1, 120 h
Rattus norvegicus [34] = test: Sedative activity in rat assessed effect on time spent on rapid eye movement sleep at 3 mg/kg, po after 15 hrs; format: ADME, organism-based; set-up: dose 3 mg/kg, route oral; conditions: in vivo
Rhesus monkey = test: Plasma concentration in rhesus monkey; format: ADME, organism-based, Macaca mulatta; conditions: in vivo
Rattus norvegicus [35] = test: Decrease of number of awakenings in rat at 3 mg/kg, po after 15 hrs by EMG recordings; format: functional, organism-based; set-up: dose 3 mg/kg
[36] = Induction of cytochrome P450 activity at 10 uM; format: ADME
Canis familiaris [37] = test: Cardiotoxicity in dog assessed as increase of heart rate up to 10 mg/kg, iv; format: toxicity, organism-based, Canis lupus familiaris; set-up: dose 10 mg/kg, route intravenous; conditions: in vivo
Rattus norvegicus [38] = test: Ex vivo receptor occupancy of 5HT2A receptor in rat brain at 3 mg/kg, po after 2 hrs; format: functional, organism-based; set-up: dose 3 mg/kg
[39] = Inhibition of cytochrome P450 at > 30 uM; format: ADME
Rattus norvegicus [40] = test: Ex vivo receptor occupancy of 5HT2A receptor in rat brain at <1 mg/kg, po after 2 hrs; format: functional
Canis familiaris [41] = test: Cardiotoxicity in dog assessed as increase of QT interval up to 10 mg/kg, iv; format: toxicity, organism-based, Canis lupus familiaris; set-up: dose 10 mg/kg, route intravenous; conditions: in vivo
Rattus norvegicus [42] = test: Ex vivo receptor occupancy of 5HT2A receptor in rat brain at 1 mg/kg, po after 0.5 hrs; format: functional
[43] = Bioavailability in rat; format: ADME, organism-based; conditions: in vivo
Rattus norvegicus [44] = test: Increase of slow wave sleep in rat at 3 mg/kg, po after 15 hrs by EEG recordings; format: functional, organism-based; set-up: dose 3 mg/kg
[45] = Plasma concentration in rat at <1 mg/kg, po after 2 hrs; format: ADME, organism-based

5-hydroxytryptamine receptor 2A, sequence (P28223 whole entry): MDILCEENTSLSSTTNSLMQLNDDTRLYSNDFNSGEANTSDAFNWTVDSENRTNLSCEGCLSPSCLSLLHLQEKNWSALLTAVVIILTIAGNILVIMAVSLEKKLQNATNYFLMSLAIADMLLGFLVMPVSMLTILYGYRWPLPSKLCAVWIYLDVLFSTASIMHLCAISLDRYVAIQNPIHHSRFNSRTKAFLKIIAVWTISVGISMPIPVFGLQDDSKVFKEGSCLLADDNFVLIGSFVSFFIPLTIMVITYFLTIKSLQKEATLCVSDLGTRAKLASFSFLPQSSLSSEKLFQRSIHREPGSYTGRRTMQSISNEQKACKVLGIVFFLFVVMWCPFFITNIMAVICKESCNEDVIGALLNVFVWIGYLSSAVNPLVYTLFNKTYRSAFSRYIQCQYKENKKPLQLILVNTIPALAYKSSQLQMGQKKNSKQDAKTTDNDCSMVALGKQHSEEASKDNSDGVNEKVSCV
Voltage-gated inwardly rectifying potassium channel KCNH2, sequence (Q12809 whole entry): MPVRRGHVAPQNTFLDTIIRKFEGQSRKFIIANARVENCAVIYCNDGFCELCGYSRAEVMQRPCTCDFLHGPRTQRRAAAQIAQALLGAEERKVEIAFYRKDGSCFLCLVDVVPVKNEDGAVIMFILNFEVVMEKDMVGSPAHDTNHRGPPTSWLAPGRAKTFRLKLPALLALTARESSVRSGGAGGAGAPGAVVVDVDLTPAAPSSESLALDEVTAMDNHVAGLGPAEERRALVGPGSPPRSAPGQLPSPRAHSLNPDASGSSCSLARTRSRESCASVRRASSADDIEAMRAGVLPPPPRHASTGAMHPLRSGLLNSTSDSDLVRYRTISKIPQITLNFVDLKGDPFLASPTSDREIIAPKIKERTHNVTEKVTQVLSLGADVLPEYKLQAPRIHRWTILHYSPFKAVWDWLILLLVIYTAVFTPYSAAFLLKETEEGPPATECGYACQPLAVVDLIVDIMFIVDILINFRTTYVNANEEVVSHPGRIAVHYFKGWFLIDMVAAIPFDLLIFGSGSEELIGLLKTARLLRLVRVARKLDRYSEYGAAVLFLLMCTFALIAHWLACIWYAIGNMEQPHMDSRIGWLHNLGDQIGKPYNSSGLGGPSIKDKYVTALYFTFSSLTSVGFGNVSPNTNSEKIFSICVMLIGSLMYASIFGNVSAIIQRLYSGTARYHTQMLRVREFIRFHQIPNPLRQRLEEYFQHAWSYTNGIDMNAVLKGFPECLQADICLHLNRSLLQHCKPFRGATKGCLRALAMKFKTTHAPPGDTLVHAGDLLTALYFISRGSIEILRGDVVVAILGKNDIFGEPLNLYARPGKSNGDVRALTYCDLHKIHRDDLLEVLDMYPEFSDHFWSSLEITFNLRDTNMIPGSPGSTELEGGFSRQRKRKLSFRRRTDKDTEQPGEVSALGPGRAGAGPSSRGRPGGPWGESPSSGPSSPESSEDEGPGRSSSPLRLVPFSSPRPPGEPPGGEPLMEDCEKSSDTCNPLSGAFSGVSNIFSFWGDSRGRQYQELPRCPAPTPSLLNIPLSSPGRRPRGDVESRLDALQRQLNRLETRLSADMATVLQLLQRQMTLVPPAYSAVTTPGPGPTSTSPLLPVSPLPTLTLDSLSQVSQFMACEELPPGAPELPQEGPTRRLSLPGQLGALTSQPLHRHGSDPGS
Cytochrome P450 2C9 (Homo sapiens), sequence (P11712 whole entry, looked up): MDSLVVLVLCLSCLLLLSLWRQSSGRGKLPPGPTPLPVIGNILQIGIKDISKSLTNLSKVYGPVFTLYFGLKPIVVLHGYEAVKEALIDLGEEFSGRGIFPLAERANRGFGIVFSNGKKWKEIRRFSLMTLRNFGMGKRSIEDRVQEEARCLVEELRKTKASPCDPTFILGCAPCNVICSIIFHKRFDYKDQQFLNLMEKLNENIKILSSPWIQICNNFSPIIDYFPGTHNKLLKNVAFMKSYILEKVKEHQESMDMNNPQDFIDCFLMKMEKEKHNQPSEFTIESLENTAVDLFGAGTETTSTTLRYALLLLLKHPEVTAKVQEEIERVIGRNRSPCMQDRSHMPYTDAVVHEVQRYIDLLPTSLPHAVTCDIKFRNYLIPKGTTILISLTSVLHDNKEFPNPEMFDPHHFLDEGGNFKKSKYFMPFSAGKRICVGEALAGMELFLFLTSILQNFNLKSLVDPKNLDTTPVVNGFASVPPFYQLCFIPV

- pKi [1]: 7.39
- concentration at 0.5 h [2]: 300 nM
- concentration at 0.5 h [3]: 620 nM
- turnover at 0.25 h [6]: 0%
- pKi [7]: 9.19
SMILES: NC(=O)c1ccc(S(=O)(=O)c2ccc(/C=C/c3ccc(F)cc3F)cc2)cc1
- pKi [4]: 5.10
- inhibition in vivo at 10 mg/kg (Rattus norvegicus [5]): 53%

- pKi [1]: 7.16
SMILES: O=S(=O)(c1ccc(F)cc1)C1(F)CCN(CCc2ccc(F)cc2F)CC1
- Activity (Rattus norvegicus [8]): 98%

- pKi [1]: 8.15
- turnover at 0.25 h [6]: < 10%
- pKi [7]: 10.15
SMILES: CC(O)c1ccccc1S(=O)(=O)c1ccc(/C=C/c2ccc(F)cc2)cc1 (racemic)
- Activity (Rattus norvegicus [8]): 85%
- Activity (Rattus norvegicus [9]): 99%
- pKi [4]: 5.40

- pKi [1]: 6.28
- turnover at 0.25 h [6]: 84%
- pKi [7]: 8.84
SMILES: O=S(=O)(c1ccccc1)c1ccc(CCc2ccc(F)cc2F)cc1
- pKi [4]: < 5.05

- pKi [1]: 6.74
- pKi [7]: 8.68
SMILES: O=S(=O)(c1cccc2cccnc12)N1CCC(CCc2ccc(F)cc2F)CC1
- pKi [4]: < 5.05

- remaining at 0.25 h [10]: 23%
- clearance [11]: 0.3 mL/min/kg
- half-life [12]: 5100 min
- pKi [1]: 6.90
- half-life [13]: 5.58 days
- concentration at 0.5 h [2]: 2730 nM
- clearance [14]: 3 mL/min/kg
- concentration at 0.5 h [3]: 5770 nM
- remaining at 0.25 h [15]: 0%
- remaining at 0.25 h [16]: < 10%
- turnover at 0.25 h [6]: 15.8%
- half-life [17]: 1680 min
- pKi [7]: 9.19
- clearance [18]: 0.13 mL/min/kg
SMILES: NC(=O)c1ccccc1S(=O)(=O)c1ccc(/C=C/c2ccc(F)cc2F)cc1
- Activity (Rattus norvegicus [8]): > 100%
- pKi [4]: < 5.05
- inhibition in vivo at 10 mg/kg (Rattus norvegicus [5]): 100%

- AUC [19]: 0.79 µM·h
- pKi [1]: 7.19
- AUC [20]: 0.46 µM·h
- AUC [21]: 0.09 µM·h
- AUC [22]: 0.38 µM·h
- AUC [23]: 6.39 µM·h
- turnover at 0.25 h [6]: 33%
- pKi [7]: 8.88
- AUC [24]: 1.96 µM·h
SMILES: O=S(=O)(c1ccccc1)c1ccc(/C=C/c2ccc(F)cc2F)cc1
- Activity (Rattus norvegicus [8]): 40%
- pKi [4]: 5.36

- pIC50 [25]: 7.00
SMILES: O=S(=O)(c1ccc(/C=C/c2ccc(F)cc2)cc1)c1ccccc1CO

- pKi [1]: 7.00
- turnover at 0.25 h [6]: 99%
SMILES: O=C(c1ccccc1F)N1CCC(CCc2ccc(F)cc2F)CC1
- Activity (Rattus norvegicus [8]): 40%
- pKi [4]: < 5.05

- pKi [1]: 7.68
- concentration at 0.5 h [2]: 40 nM
- concentration at 0.5 h [3]: 40 nM
- turnover at 0.25 h [6]: 3%
- pKi [7]: 9.70
SMILES: NC(=O)c1cccc(S(=O)(=O)c2ccc(/C=C/c3ccc(F)cc3F)cc2)c1
- Activity (Rattus norvegicus [8]): 50%
- pKi [4]: < 5.05
- inhibition in vivo at 10 mg/kg (Rattus norvegicus [5]): 50%

- remaining at 0.25 h [10]: 44%
- clearance [11]: 8 mL/min/kg
- half-life [12]: 128 min
- INH [26]: 6 µM
- pKi [1]: 7.33
- half-life [13]: 0.131 days
- Vd [28]: 19 L/kg
- bioavailability [29]: 45%
- bioavailability [30]: 10%
- IC50 [31]: 4.8 µM
- Stability [32]: Stable
- clearance [14]: 95 mL/min/kg
- Stability [33]: Stable
- concentration (Rhesus monkey): 170 nM
- remaining at 0.25 h [15]: 50%
- Activity [36]: 8%
- remaining at 0.25 h [16]: 34%
- IC50 [39]: > 30 µM
- turnover at 0.25 h [6]: 45%
- half-life [17]: 228 min
- pKi [7]: 9.66
- bioavailability [43]: 44%
- clearance [18]: 32 mL/min/kg
- concentration at 2 h [45]: 60 nM
SMILES: C[C@H](O)c1ccccc1S(=O)(=O)c1ccc(/C=C/c2ccc(F)cc2)cc1
- Activity (Rattus norvegicus [27]): Non-toxic
- Activity (Mus musculus): Toxic
- Activity (Rattus norvegicus [34]): Non-toxic
- pKi [4]: 5.08
- Activity (Rattus norvegicus [35]): Active
- Activity (Canis familiaris [37]): Non-toxic
- Activity (Rattus norvegicus [38]): Active
- Activity (Rattus norvegicus [40]): 80%
- Activity (Canis familiaris [41]): Non-toxic
- Activity (Rattus norvegicus [42]): 83%
- Activity (Rattus norvegicus [44]): Active
